In ChEMBL document CHEMBL5528042, “Identification of Novel, Selective Ataxia-Telangiectasia Mutated Kinase Inhibitors with the Ability to Penetrate the Blood-Brain Barrier: The Discovery of AZD1390” (J Med Chem, 2024):
Values after ≈ are worked out from the molar mass of the structure shown.

Legend:
[1] = Lipophilicity, logD of the compound at pH 7.4; format: physicochemical; conditions: buffer
[2] = Aqueous solubility of the compound in pH 7.4; format: physicochemical; conditions: buffer
[3] = Apparent permeability across apical to basolateral side in dog MDCKII-MDR1 cells overexpressing BCRP at 0.1 uM incubated for 90 mins by LC-MS/MS analysis; format: ADME, cell-based, Canis lupus familiaris, MDCK-MDR1
[4] = Apparent permeability across apical to basolateral side in dog MDCKII-MDR1 cells overexpressing BCRP at 1 uM incubated for 90 mins by LC-MS/MS analysis; format: ADME, cell-based, Canis lupus familiaris, MDCK-MDR1
[5] = Intrinsic clearance in human hepatocyte assessed per 10^6 cells; format: ADME, cell-based; conditions: hepatocytes, read-out: CLH
[6] = Intrinsic clearance in rat hepatocyte assessed per 10^6 cells; format: ADME, cell-based; conditions: hepatocytes, read-out: CLH
[7] = Dissociation constant, pKa of compound; format: physicochemical
[8] = molecular target: Serine/threonine-protein kinase ATR (Homo sapiens, UniProt Q13535); test: Inhibition of ATR in human HT-29 cells incubated for 2 hrs by Alexa Fluor 488/Hoeschst staining based plate reader assay; format: cell-based
[9] = tested on: MDR1, BCRP; test: Efflux ratio of apparent permeability across basolateral to apical side over apical to basolateral side in dog MDCKII-MDR1 cells overexpressing BCRP at 0.1 uM incubated for 90 mins by LC-MS/MS analysis; format: ADME, cell-based, Canis lupus familiaris, MDCK-MDR1
[10] = tested on: MDR1, BCRP; test: Efflux ratio of apparent permeability across basolateral to apical side over apical to basolateral side in dog MDCKII-MDR1 cells overexpressing BCRP at 1 uM incubated for 90 mins by LC-MS/MS analysis; format: ADME, cell-based, Canis lupus familiaris, MDCK-MDR1

Serine/threonine-protein kinase ATR, sequence (Q13535 whole entry): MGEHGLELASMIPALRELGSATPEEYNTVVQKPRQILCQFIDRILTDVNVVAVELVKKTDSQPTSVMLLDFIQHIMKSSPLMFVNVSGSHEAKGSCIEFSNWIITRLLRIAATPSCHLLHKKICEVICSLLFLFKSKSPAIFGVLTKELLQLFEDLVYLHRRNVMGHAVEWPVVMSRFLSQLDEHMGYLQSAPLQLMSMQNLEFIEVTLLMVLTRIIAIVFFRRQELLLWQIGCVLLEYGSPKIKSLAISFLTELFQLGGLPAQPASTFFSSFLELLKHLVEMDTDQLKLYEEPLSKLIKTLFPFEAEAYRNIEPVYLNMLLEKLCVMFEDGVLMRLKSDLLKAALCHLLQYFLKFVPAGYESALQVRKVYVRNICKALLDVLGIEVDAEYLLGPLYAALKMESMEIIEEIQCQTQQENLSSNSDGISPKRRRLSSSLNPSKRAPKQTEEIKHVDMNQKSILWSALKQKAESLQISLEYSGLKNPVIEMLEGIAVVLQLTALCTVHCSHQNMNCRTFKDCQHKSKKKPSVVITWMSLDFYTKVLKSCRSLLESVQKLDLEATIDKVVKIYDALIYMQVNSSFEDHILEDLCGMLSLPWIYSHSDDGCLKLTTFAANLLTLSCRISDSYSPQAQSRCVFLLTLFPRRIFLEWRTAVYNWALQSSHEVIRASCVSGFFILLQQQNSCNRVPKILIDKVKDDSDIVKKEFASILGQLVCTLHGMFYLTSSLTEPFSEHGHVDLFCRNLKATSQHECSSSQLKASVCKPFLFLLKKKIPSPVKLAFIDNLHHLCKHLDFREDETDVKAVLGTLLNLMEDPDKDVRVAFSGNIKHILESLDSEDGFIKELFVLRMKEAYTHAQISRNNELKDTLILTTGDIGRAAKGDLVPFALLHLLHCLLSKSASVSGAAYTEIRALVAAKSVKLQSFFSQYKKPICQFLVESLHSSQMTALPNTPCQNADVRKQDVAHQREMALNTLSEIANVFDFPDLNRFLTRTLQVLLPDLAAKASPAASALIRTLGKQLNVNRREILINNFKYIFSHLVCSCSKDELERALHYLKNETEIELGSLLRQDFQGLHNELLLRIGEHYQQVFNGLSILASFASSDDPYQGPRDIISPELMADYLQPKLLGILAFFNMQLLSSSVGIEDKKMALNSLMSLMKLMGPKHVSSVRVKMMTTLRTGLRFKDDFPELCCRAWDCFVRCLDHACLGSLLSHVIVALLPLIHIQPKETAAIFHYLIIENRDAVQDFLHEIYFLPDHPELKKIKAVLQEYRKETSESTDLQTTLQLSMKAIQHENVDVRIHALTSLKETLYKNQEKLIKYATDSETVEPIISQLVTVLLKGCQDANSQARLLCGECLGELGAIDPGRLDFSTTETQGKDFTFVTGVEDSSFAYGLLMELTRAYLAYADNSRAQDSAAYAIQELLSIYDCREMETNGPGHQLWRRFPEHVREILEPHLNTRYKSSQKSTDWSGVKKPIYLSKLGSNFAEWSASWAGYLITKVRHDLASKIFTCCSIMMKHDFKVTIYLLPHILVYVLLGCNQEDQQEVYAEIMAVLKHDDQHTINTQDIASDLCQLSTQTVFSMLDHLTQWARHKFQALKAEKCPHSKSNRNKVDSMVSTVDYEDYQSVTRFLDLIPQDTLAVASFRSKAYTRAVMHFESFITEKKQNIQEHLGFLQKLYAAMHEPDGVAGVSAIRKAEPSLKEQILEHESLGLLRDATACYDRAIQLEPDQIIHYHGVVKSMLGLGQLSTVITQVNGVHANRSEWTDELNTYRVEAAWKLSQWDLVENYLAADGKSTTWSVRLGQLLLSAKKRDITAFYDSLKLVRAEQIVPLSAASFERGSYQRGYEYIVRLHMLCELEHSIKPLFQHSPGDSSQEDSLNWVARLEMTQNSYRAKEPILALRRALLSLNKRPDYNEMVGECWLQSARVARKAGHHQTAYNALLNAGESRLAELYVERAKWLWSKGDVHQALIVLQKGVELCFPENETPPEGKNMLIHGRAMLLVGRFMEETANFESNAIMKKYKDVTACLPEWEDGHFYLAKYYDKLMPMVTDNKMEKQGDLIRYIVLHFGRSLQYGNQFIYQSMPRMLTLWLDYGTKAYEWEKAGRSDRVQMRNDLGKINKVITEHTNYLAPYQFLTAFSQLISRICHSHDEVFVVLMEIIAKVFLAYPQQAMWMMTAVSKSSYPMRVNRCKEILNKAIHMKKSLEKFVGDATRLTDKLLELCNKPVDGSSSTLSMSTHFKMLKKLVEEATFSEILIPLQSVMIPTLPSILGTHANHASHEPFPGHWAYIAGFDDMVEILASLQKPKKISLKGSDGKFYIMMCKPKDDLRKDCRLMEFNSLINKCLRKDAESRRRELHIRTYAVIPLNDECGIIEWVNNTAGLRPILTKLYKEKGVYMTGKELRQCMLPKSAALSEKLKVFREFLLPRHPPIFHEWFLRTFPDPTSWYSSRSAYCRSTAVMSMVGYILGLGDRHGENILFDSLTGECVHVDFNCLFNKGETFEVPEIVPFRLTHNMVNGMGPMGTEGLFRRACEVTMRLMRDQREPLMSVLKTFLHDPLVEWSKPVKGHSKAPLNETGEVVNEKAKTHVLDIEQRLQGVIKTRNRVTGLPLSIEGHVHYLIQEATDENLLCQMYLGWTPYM

SMILES	logD [1]	solubility [2] [µM]	Papp A→B at […], 0.1 µM [3] [×10⁻⁶ cm/s]	Papp A→B at […], 1 µM [4] [×10⁻⁶ cm/s]	hepatocyte CLint [5] [µL/min/1e6 cells]	hepatocyte CLint [6] [µL/min/1e6 cells]	pKa [7]	IC50 [8] [µM]	efflux ratio at […], 0.1 µM [9]	efflux ratio at […], 1 µM [10]
CC(C)n1c(=O)n(C)c2cnc3ccc(-c4ccc(N5CC(N(C)C)C5)nc4)cc3c21	3	10 (≈ 4.17 µg/mL)	18	32	4.8	44	7.1	–	–	–
CC(C)n1c(=O)n(C)c2cnc3ccc(-c4ccc(N5CC6(CN(C)C6)C5)nc4)cc3c21	1.7	928 (≈ 398 µg/mL)	–	6	< 1	2.4	–	> 31.6	–	–
Cn1c(=O)n(C2CCOCC2)c2c3cc(-c4ccc(OCCCN5CCCCC5)cc4)ccc3ncc21	2.5	88 (≈ 44.1 µg/mL)	7.5	13	2.9	5.3	–	> 15.8	–	–
CN(C)CCCOc1ccc(-c2ccc3ncc4c(c3c2)n([C@@H]2CCCOC2)c(=O)n4C)cc1	2.4	851 (≈ 392 µg/mL)	9.7	22	7.9	8.1	–	> 31.6	–	–
COCc1ccc(-c2ccc3ncc4c(c3c2)n(C(C)C)c(=O)n4C)cn1	2.7	42 (≈ 15.2 µg/mL)	39	–	34	9	–	–	–	–
COCc1ccc(-c2ccc3ncc4c(c3c2)n([C@@H]2CC[C@@H](OC)C2)c(=O)n4C)cn1 (relative stereo)	3	789 (≈ 330 µg/mL)	37	24	5.3	40	–	–	–	–
CC(C)n1c(=O)n(C)c2cnc3ccc(-c4ccc(OCCCN(C)C)nc4)cc3c21	1.9	480 (≈ 201 µg/mL)	13	21	5.2	14	–	> 20	6.3	2.1
CO[C@H]1CC[C@H](n2c(=O)n(C)c3cnc4ccc(-c5ccc(OCCCN(C)C)cc5)cc4c32)C1	2.7	604 (≈ 287 µg/mL)	9.7	18	8.7	8.7	–	–	–	–
CC(C)n1c(=O)n(C)c2cnc3ccc(-c4ccc(OCCN(C)C)nc4)cc3c21	2.1	421 (≈ 171 µg/mL)	–	52	6.1	24	–	> 25.1	–	–
CC(C)n1c(=O)n(C)c2cnc3ccc(-c4ccc(OCCCCN(C)C)nc4)cc3c21	1.9	39 (≈ 16.9 µg/mL)	5	–	2.1	19	–	> 15.8	–	–
CC(C)n1c(=O)n(C)c2cnc3cc(F)c(-c4ccc(N5CCN(C)CC5)nc4)cc3c21	3.2	17 (≈ 7.39 µg/mL)	17	19	6.5	22	7.8	> 31.6	–	–
COCc1ccc(-c2ccc3ncc4c(c3c2)n([C@H]2C[C@@H](CO)C2)c(=O)n4C)cn1	2	990 (≈ 400 µg/mL)	–	3.2	3.5	20	–	–	–	–
CC(C)n1c(=O)n(C)c2cnc3ccc(-c4ccc(N5CC[C@H](N(C)C)C5)nc4)cc3c21	3	137 (≈ 59 µg/mL)	–	22	3.8	25	–	–	–	–
